Laboratory results: patent US20250213496A1, “LIPID NANOPARTICLES AND PREPARATION METHODS AND USE THEREOF” (priority 2022, published 2025)

Assay: HPLC quantification of retinoid compound in LNP (encapsulation efficiency)
Assay type: physicochemical
Settings: HPLC after diluting LNP with ethanol; AM80 275 nm, ATRA 350 nm
Description: The content of the retinoid compound in the LNP is determined by high performance liquid chromatography (HPLC), including: preparing a gradient dilution standard solution of ATRA or AM80, establishing the HPLC method, sequentially injecting 100 μL of different concentrations of the standard solution, and plotting the standard curve by using the ultraviolet absorption peak areas of different concentrations of ATRA or AM80. The five-component LNP is broken by ethanol with a volume more than 10 times the volume of the LNP, and the volume of each injection is controlled to be 100 μL; the peak area is substituted into the standard curve to obtain the content of ATRA or AM80 in the lipid solution.
Chromatographic conditions: Sunfire C18 column (150 mm×4.6 mm, 5 μm), column temperature (25° C.), mobile phase A (acetonitrile), mobile phase B (0.1 M triethylamine acetate buffer solution with a pH of 7.0), flow rate of 1.0 mL/min, and injection volume of 100 μL each time.
The standard solutions of AM80 with different concentrations were prepared with ethanol, and HPLC injection and gradient elution were performed. […] After diluting LNP with the ethanol, HPLC injection was performed, the AM80 content in the LNP solution was quantified according to the absorption peak area at 275 nm, and an encapsulation efficiency of AM80 is 45%-65%. […]

Structure (SMILES)	encapsulation efficiency of retinoid compound in LNP
CC1=C(/C=C/C(C)=C/C=C/C(C)=C/C(=O)O)C(C)(C)CCC1 [ATRA, all-trans-retinoic acid]	40%-70
CC1(C)CCC(C)(C)c2cc(NC(=O)c3ccc(C(=O)O)cc3)ccc21 [AM80, tamibarotene]	45%-65
